The values that follow are results of earlier work, collected in patent publication US20100055044A1, “Ruthenium compounds and compositions” (priority 2008, published 2010).

SMILES strings stand for the structures. Like-named read-outs stand apart in the source and are kept apart here.

The test system of the series is Alveolar adenocarcinoma, breast adenocarcinoma, uterine carcinosarcoma, and endometrial carcinoma cells. Particulars: 8 days.

As to `O=[O+][O-]` [ozone], the cell growth inhibition is given as 40% (0.3 ppm ozone in air); 60% (0.5 ppm ozone in air); 90% (0.8 ppm ozone in air, cancerous cells).
